Assay results published in patent US6974671B1, “Methods for indentifying compounds that modulate gluconeogenesis through the binding of CREB to the PGC-1 promoter” (Salk Institute for Biological Studies, priority 2001, dated 2005).

Tests used:
PGC-1 promoter = assay: Transient assay of HepG2 cells with PGC-1 luciferase reporter; assay type: cell-based, human
Description: (§1) Plasmids. Expression plasmids pZEO-ACREB^22 and pcDNA3-PGC-1^24 have been described previously. Liver specific A-CREB transgene was constructed by inserting A-CREB cDNA into a liver specific albumin promoter/enhancer plasmid^5. To construct luciferase expression plasmids −490PEPCKLuc and −355PEPCKLuc BamHI/BglII fragments of the PEPCK promoter region containing 490 or 355 bp of the mouse PEPCK 5′-flanking region, respectively, were cloned into the pGL3 basic luciferase reporter vector (Promega, St. Luis Obispo). PGC-1 reporter mPGCLuc was constructed by inserting a […] fragment of the mouse PGC-1 promoter containing 170 bp of the 5′-flanking region and 68 bp of Exon 1 into the pGL3 vector.
(§2) Cell culture and transient transfection assays. Human hepatoma HepG2 cells were transfected using the Lipofectamine 2000 reagent (GIBCO BRL) according to manufacturers instructions (500 ng of indicator plasmid/well). Where indicated, expression plasmids encoding A-CREB (pZeo-ACREB)^22 or PGC-1 (pcDNA3-PGC-1)^24 were cotransfected (50 ng or 800 ng plasmid/well, respectively). Cotransfections were performed with a constant DNA amount by adding the empty pcDNA3 vector (Invitrogen). Cells were treated with Forskolin (10 μM) and/or Dexamethasone (100 nM) or insulin (10 nM) for 14 h. […]

PEPCK promoter = assay: Transient assay of HepG2 cells with PEPCK luciferase reporter; assay type: cell-based, human; conditions: HepG2, PEPCK reporter plasmid, cAMP agonist
Description: as §1, §2

| Molecule | induction of PGC-1 promoter activity (PGC-1 promoter; HepG2, PGC-1 luciferase reporter (-170 to +68), forskolin 10 μM) | stimulation of PEPCK promoter activity (PEPCK promoter) | effect on PGC-1 reporter activity (PGC-1 promoter; HepG2, insulin 10 nM) |
| --- | --- | --- | --- |
| C=C[C@@]1(C)CC(=O)[C@]2(O)[C@@]3(C)[C@@H](O)CCC(C)(C)[C@@H]3[C@H](O)[C@H](OC(C)=O)[C@@]2(C)O1 [cAMP agonist, Forskolin] | 3–4 fold | 3–4 fold |  |
| insulin |  |  | blocked |
